Experimental data reported in a melting point compilation (Tetko et al.; mined from patent text by program, amines drawn as free bases though some values may be those of a salt).

Compared with `Cc1nnc2cc(-c3ccccc3)c3cc(Cl)ccc3n12`, `Cc1cccc(-c2cc(Cl)nc3ccc(C(=O)c4ccc(Cl)cc4)cc23)c1` is lower in melting point: 254 to 255 °C for the first, 199 °C for the second.

Compared with `CC(C)(C)NC(=O)C1CCCN1C(=O)C(O)C(Cc1ccccc1)NC(=O)C(CC(N)=O)NC(=O)COc1cccc(NC(=O)OCc2ccccc2)c1` (stereo not given), `CC(C)(CCC(=O)N[C@H](Cc1ccccc1)C(=O)NCCCCNC(=N)N)C(=O)O` is higher in melting point: 107 to 117 °C for the first, 169 °C for the second.

Compared with `Cc1cc(C2=NOC(c3cc(Cl)cc(Cl)c3)(C(F)(F)F)C2)ccc1C(=O)NCO` (stereo not given), `O=C(c1ccc(Cl)c(Cl)c1)c1ccc(O)c(Cl)c1Cl` is higher in melting point: 69 to 73.5 °C for the first, 179 to 180 °C for the second.

First: O=C(c1c[nH]c2cc(C#Cc3ccccc3)ccc12)C1CSC(c2cccnc2)N1 (stereo not given)
Second: Oc1ccc(-c2nc(-c3ccccc3)[nH]c2-c2ccc(O)cc2)cc1
The melting point of the first is lower: 103 to 107 °C for the first, 327 to 330 °C for the second.

First: O=C1NC(=O)C(c2cn3c4c(cccc24)CCC3)C1c1ccc(OCc2ccccc2)cc1 (stereo not given)
Second: COc1cc2c(cc1OCc1ccccc1)C(c1ccccc1)=NCC2
The melting point of the first is lower: 91 to 93 °C for the first, 134 to 137 °C for the second.

First: O=C(Cc1ccc2ccccc2c1)N[C@H]1C[C@H](C(=O)O)Nc2cc(Cl)cc(Cl)c21 (relative stereo)
Second: O=S(=O)(Nc1ccccc1O)c1ccc(Cl)cc1
The melting point of the first is higher: 217 to 219 °C for the first, 82 °C for the second.

Compared with `CC(C)c1c(/C=C/I)c(-c2ccc(F)cc2)nc2ccccc12`, `COC(=O)C=Cc1ccc(OCc2nc(-c3ccccc3)c(C)s2)cc1` is lower in melting point: 145 to 147 °C for the first, 142 to 143 °C for the second.

Compared with `CCCCOc1ccc(-c2ccc(=O)[nH]n2)cc1OC`, `CCOc1ccc([N+](=O)[O-])c(Nc2ccc(OC)cc2)c1` is lower in melting point: 165 °C for the first, 109 °C for the second.

First: COC(=O)c1cc(=O)n(-c2c(Cl)cc(C(F)(F)F)cc2Cl)[nH]1
Second: Cc1cc(=O)n(-c2ccc(Cl)cc2F)c(=O)n1C
The melting point of the first is higher: 245 to 246 °C for the first, 145 °C for the second.

First: CCOC(=O)c1nnn(-c2ccccc2)c1Cl
Second: O=C(c1n[nH]c2ccccc12)N1CCCCC1
The melting point of the first is lower: 80 to 81 °C for the first, 201 to 203 °C for the second.

`Cc1[nH]c2ccccc2c1CCN1CCN(NC(=O)c2ccccc2)CC1` and `Nc1ccc(N2CCN(Cc3ncc(-c4ccccc4)o3)CC2)cc1` cannot be ordered by melting point: 130 to 133 °C for the first, 130 °C for the second.

First: CC(Cc1sc(Br)cc1Cl)NC(=O)c1cn(C)nc1C(F)F (stereo not given)
Second: COc1nc(Cl)nc(NC(=O)NS(=O)(=O)c2ccccc2OC(F)F)n1
The melting point of the first is lower: 157 to 158 °C for the first, 167 to 168 °C for the second.

Compared with `OCC1CC2CCC13CN(CC1CC1)CCC31c3cccc(O)c3OC21` (stereo not given), `Cc1nc2c(C(F)(F)F)cccc2c(O)c1C(=O)O` is higher in melting point: 187 to 190 °C for the first, 260 °C for the second.

First: CCN(CC)c1ccc(/C=C/C(=O)CC(=O)/C=C/c2ccc3cc[nH]c3c2)cc1
Second: CCCc1c(-c2ccc(C(=O)OC)cc2)oc2cc(S(=O)(=O)Cl)ccc2c1=O
The melting point of the first is lower: 110 to 118 °C for the first, 128 °C for the second.

Compared with `O=C(Nc1ccccc1)N(CCCn1ccnc1)C1=Nc2cccc3cccc1c23`, `COc1ccc(Cl)cc1C(=O)NCCc1ccc(-c2ccc(S(C)(=O)=O)cc2)c(S(N)(=O)=O)c1` is lower in melting point: 240 to 250 °C for the first, 114 °C for the second.

First: CCCc1nc2c(N)nc3cc(Oc4ccc([N+](=O)[O-])cc4)ccc3c2n1CC(C)C
Second: CCCc1nc2c(N)nc(C)c(C)c2n1CCCCS(N)(=O)=O
The melting point of the first is higher: 209 to 211 °C for the first, 167 to 169 °C for the second.

First: O=c1c2cccnc2n(-c2cccc([N+](=O)[O-])c2)c(=O)n1CC(F)(F)F
Second: CCCOc1ccc(-n2c(C(F)(F)F)nn(C)c2=S)cc1
The melting point of the first is higher: 228 to 229 °C for the first, 68 to 70 °C for the second.

Compared with `Cc1nn(-c2nnc(S)n2N)c2c1CCCC2`, `COc1cc(N)c2nccc(C)c2c1OC` is lower in melting point: 201 to 202 °C for the first, 108 to 110 °C for the second.

Compared with `CCC1Cc2cc(OCC(=O)O)cc(Br)c2C1=O` (stereo not given), `CN1C(=O)COc2c(C(=O)O)cc([N+](=O)[O-])cc21` is higher in melting point: 146 to 148 °C for the first, 256 to 259 °C for the second.

Compared with `O=S1(=O)CCON=C1c1ccc(Cl)s1`, `CS(=O)(=O)Nc1ccc(O)cn1` is higher in melting point: 113 to 114 °C for the first, 246 to 247 °C for the second.
